Where a name gives a salt, the structure may show the parent alone. Read-outs that look alike come from different tables or passages of the source.
What was measured:
[1] = Solubility (Sol., Table 1); format: physicochemical
[2] = pH (Table 1); format: physicochemical
[3] = tested on: Escherichia coli (ATCC 25922); test: Minimum inhibitory concentration (MIC) assay, Example 33; format: cell-based; conditions: Escherichia coli
Outline: (§1)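 In CAMHB, 2-fold compound series meet bacteria from fresh isolated colonies, turbidity-adjusted to OD600 0.08-0.13 and diluted 1:100 (2× inoculum). Incubation: 35° C. Endpoint: MIC per CLSI.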

[4] = tested on: Pseudomonas aeruginosa (ATCC 27853); test: as above; format: cell-based; conditions: Pseudomonas aeruginosa
Outline: as §1

[5] = tested on: Staphulococcus aureus (ATCC 29213); test: as above; format: cell-based, Staphylococcus aureus; conditions: Staphylococcus aureus
Outline: as §1

[6] = tested on: Candida albicans (ATCC 90029); test: as above; format: cell-based; conditions: Candida albicans
Outline: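 Broth microdilution per CLSI guidelines in RPMI 1640; inoculum set to OD530 0.08–0.13, diluted 1:50 then 1:20 to 2× strength and mixed 1:2 with 2-fold serial compound dilutions. Incubated at 35° C; MIC read per CLSI.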

[7] = tested on: Aspergillus niger (CMCC 98003); test: as above; format: cell-based; conditions: for MIC: Aspergillus niger; for MIC Aspergillus niger: n = 2
Outline: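 Broth microdilution MIC per CLSI guidelines in RPMI 1640 with serial 2-fold compound dilutions. Spore suspension from sporulating colonies adjusted to OD530 0.09-0.13, diluted 1:50 as 2× inoculum and added 1:2 to drug wells; plates incubated at 35 °C and MIC read per CLSI.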

[8] = tested on: Candida albicans (ATCC 90029); test: Time kill study, Example 33 (0 to 5 min); format: cell-based; conditions: 1×MIC
Outline: (§2)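 Per CLSI guidelines, strain suspensions were mixed 1:1 by volume with compound solution; samples taken at 0 min, 30 sec, 1 min and 5 min were diluted and plated on agar. Colonies were counted after 24 to 48 hrs incubation and viable counts reported as Log10 CFU/mL.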

[9] = tested on: Escherichia coli (ATCC 25922); test: Time kill study, Example 33 (0 to 5 min); format: cell-based; conditions: 1×MIC
Outline: as §2

[10] = tested on: Pseudomonas aeruginosa (ATCC 27853); test: Time kill study, Example 33 (0 to 5 min); format: cell-based; conditions: 1×MIC
Outline: as §2

[11] = tested on: Staphylococcus aureus (ATCC 29213); test: Time kill study, Example 33 (0 to 5 min); format: cell-based; conditions: 1×MIC
Outline: as §2

[12] = tested on: Aspergillus niger (CMCC 98003); test: Time kill study, Example 33 (0 to 5 min); format: cell-based; conditions: 1×MIC
Protocol: Thirty compounds were tested for antimicrobial activity using standard procedures and standard strains for both the minimum inhibitory concentration (MIC) assay and a time kill study. Both the MIC assay and the time kill study were performed according to Clinical and Laboratory Standards Institute (CLSI) guidelines. Three bacteria strains, Escherichia coli (ATCC 25922), Pseudomonas aeruginosa (ATCC 27853), Staphulococcus aureus (ATCC 29213), and two fungus strains, Candida albicans (ATCC 90029) and Aspergillus niger (CMCC 98003), were used in the experiments.
The viable counts in Log10 CFU/mL at each time point were recorded.
Time kill studies. Strain suspensions were prepared as described above for the MIC test, and strain suspensions and compound solutions were mixed in the same volume. Samples were removed at specified times including 0 min, 30 sec, 1 min and 5 mins, were diluted in the test medium and streaked on agar. Colonies were counted after 24 to 48 hrs of incubation.
The MIC values for thirty compounds against Escherichia coli, Pseudomonas aeruginosa, Staphulococcus aureus, Candida albicans, and Aspergillus niger were recorded and are presented in Table 3 and Table 4.

[13] = ATCC25922, Table 19 summary of Example 33 and Example 35
[14] = ATCC25922, read-out: MIC E. coli, n = 1
[15] = ATCC25922, read-out: MIC E. coli, n = 2
[16] = ATCC27853, read-out: MIC P. aeruginosa, n = 1
[17] = ATCC27853, read-out: MIC P. aeruginosa, n = 2
[18] = ATCC29213, read-out: MIC S. aureus, n = 1
[19] = ATCC29213, read-out: MIC S. aureus, n = 2
[20] = ATCC90029, read-out: MIC Candida albicans, n = 1
[21] = ATCC90029, read-out: MIC Candida albicans, n = 2
[22] = CMCC98003, read-out: MIC Aspergillus niger

Compound | melting point [°C] | Sol. [1] [%] | pH [2] | MIC [3, 13] [µg/mL] | MIC [3, 14] [µg/mL] | MIC [3, 15] [µg/mL] | MIC ([4]; ATCC27853, Table 19 summary) [µg/mL] | MIC [4, 16] [µg/mL] | MIC [4, 17] [µg/mL] | MIC ([5]; ATCC29213, Table 19 summary) [µg/mL] | MIC [5, 18] [µg/mL] | MIC [5, 19] [µg/mL] | MIC ([6]; ATCC90029, Table 19 summary) [µg/mL] | MIC [6, 20] [µg/mL] | MIC [6, 21] [µg/mL] | MIC ([7]; CMCC98003) [µg/mL] | MIC [7, 22] [µg/mL] | MIC Aspergillus niger [7] [mg/mL] | Viable counts, Candida albicans time kill study ([8]; 0.5 min) [Log10 CFU/mL] | Viable counts, Candida albicans time kill study ([8]; 1 min) [Log10 CFU/mL] | other results
CCCCCCCCCCCCOC(=O)C(C)(C)N(C)C (as salt: hydrochloride) [Nex-58, Dodecyl 2-(dimethylamino)-2-methylpropanoate hydrochloride] | 68 to 74 |  |  |  |  |  |  |  |  |  |  |  |  |  |  |  |  |  |  |  | 
CCCCCCCCCCCC(C)OC(=O)C(C)N(C)C (centres unmarked) (as salt: hydrochloride) [Nex-64, Tridecan-2-yl 2-(dimethylamino)propanoate hydrochloride] | 88 to 94 |  |  |  |  |  |  |  |  |  |  |  |  |  |  |  |  |  |  |  | 
CCCCCCCCCCCCOC(=O)C(C)N(C)C (centres unmarked) (as salt: maleate) [Nex-20, Dodecyl 2-(dimethylamino)propanoate maleate] | 65 to 70 |  |  |  |  |  |  |  |  |  |  |  |  |  |  |  |  |  |  |  | 
CCCCCCCCCCCCOC(=O)C(C)N(C)C (centres unmarked) (as salt: methanesulfonate) [Nex-22, Dodecyl 2-(dimethylamino)propanoate methanesulfonate] | 66 to 72 |  |  |  |  |  |  |  |  |  |  |  |  |  |  |  |  |  |  |  | 
CCCCCCCCCCCCOC(=O)C(C)N(C)C (centres unmarked) (as salt: salt) [Nex-30, Dodecyl 2-(dimethylamino)propanoate ethanesulfonate] | 45 to 50 |  |  |  |  |  |  |  |  |  |  |  |  |  |  |  |  |  |  |  | 
CCCCCCCCCCCCOC(=O)C(C)N(C)C (centres unmarked) (as salt: salt) [Nex-46, Dodecyl 2-(dimethylamino)propanoate 2-hydroxyethanesulfonate] | 58 to 63 |  |  |  |  |  |  |  |  |  |  |  |  |  |  |  |  |  |  |  | 
CCCCCCCCCCCCOC(=O)CN(C)C [Nex-52, Dodecyl 2-(dimethylamino)acetate hydrochloride] |  | 49 | 3.30 | 1560 | 1560 | 1560 | 6250 | 6250 | 6250 | 200 | 200 | 100 | 50 | 50 | 50 | 3130 | 3130 | 3.13 | 5.19 | 5.17 | Viable counts, Candida albicans time kill study ([8]; 5 min): 5.23 Log10 CFU/mL; Viable counts, Candida albicans time kill study ([8]; time 0): 5.24 Log10 CFU/mL; Viable counts, Escherichia coli time kill study ([9]; 0.5 min): 6.12 Log10 CFU/mL; Viable counts, Escherichia coli time kill study ([9]; 1 min): 5.86 Log10 CFU/mL; Viable counts, Escherichia coli time kill study ([9]; 5 min): 5.24 Log10 CFU/mL; Viable counts, Escherichia coli time kill study ([9]; time 0): 5.95 Log10 CFU/mL; Viable counts, Pseudomonas aeruginosa time kill study ([10]; 0.5 min): 4.7 Log10 CFU/mL; Viable counts, Pseudomonas aeruginosa time kill study ([10]; 1 min): 4 Log10 CFU/mL; Viable counts, Pseudomonas aeruginosa time kill study ([10]; 5 min): <3.52 Log10 CFU/mL; Viable counts, Pseudomonas aeruginosa time kill study ([10]; time 0): 5.56 Log10 CFU/mL; Viable counts, Staphylococcus aureus time kill study ([11]; 0.5 min): 6.27 Log10 CFU/mL; Viable counts, Staphylococcus aureus time kill study ([11]; 1 min): 6.12 Log10 CFU/mL; Viable counts, Staphylococcus aureus time kill study ([11]; 5 min): 6.13 Log10 CFU/mL; Viable counts, Staphylococcus aureus time kill study ([11]; time 0): 6.26 Log10 CFU/mL; Viable counts, Aspergillus niger time kill study ([12]; 0.5 min): 5.28 Log10 CFU/mL; Viable counts, Aspergillus niger time kill study ([12]; 1 min): 5.28 Log10 CFU/mL; Viable counts, Aspergillus niger time kill study ([12]; 5 min): 4.95 Log10 CFU/mL; Viable counts, Aspergillus niger time kill study ([12]; time 0): 5.30 Log10 CFU/mL
CCCCCCCCCCOC(=O)C(C)N(C)C (centres unmarked) [Nex-68, Decyl 2-(dimethylamino)propanoate hydrochloride] |  | 97 | 0.87 | 780 | 780 | 1560 | 3130 | 3130 | 3130 | 3130 | 3130 | 3130 | 390 | 390 | 200 | 3130 | 3130 | 3.13 | 5.35 | 5.15 | Viable counts, Candida albicans time kill study ([8]; 5 min): 5.13 Log10 CFU/mL; Viable counts, Candida albicans time kill study ([8]; time 0): 5.47 Log10 CFU/mL; Viable counts, Escherichia coli time kill study ([9]; 0.5 min): 5.53 Log10 CFU/mL; Viable counts, Escherichia coli time kill study ([9]; 1 min): 4.3 Log10 CFU/mL; Viable counts, Escherichia coli time kill study ([9]; 5 min): <3.52 Log10 CFU/mL; Viable counts, Escherichia coli time kill study ([9]; time 0): 5.88 Log10 CFU/mL; Viable counts, Pseudomonas aeruginosa time kill study ([10]; 0.5 min): 5.18 Log10 CFU/mL; Viable counts, Pseudomonas aeruginosa time kill study ([10]; 1 min): 4.88 Log10 CFU/mL; Viable counts, Pseudomonas aeruginosa time kill study ([10]; 5 min): 4.87 Log10 CFU/mL; Viable counts, Pseudomonas aeruginosa time kill study ([10]; time 0): 5.78 Log10 CFU/mL; Viable counts, Staphylococcus aureus time kill study ([11]; 0.5 min): 5.82 Log10 CFU/mL; Viable counts, Staphylococcus aureus time kill study ([11]; 1 min): 5.88 Log10 CFU/mL; Viable counts, Staphylococcus aureus time kill study ([11]; 5 min): 5.57 Log10 CFU/mL; Viable counts, Staphylococcus aureus time kill study ([11]; time 0): 6.39 Log10 CFU/mL; Viable counts, Aspergillus niger time kill study ([12]; 0.5 min): 5.25 Log10 CFU/mL; Viable counts, Aspergillus niger time kill study ([12]; 1 min): 5.25 Log10 CFU/mL; Viable counts, Aspergillus niger time kill study ([12]; 5 min): 5.25 Log10 CFU/mL; Viable counts, Aspergillus niger time kill study ([12]; time 0): 5.25 Log10 CFU/mL
CCCCCCCCOC(=O)C(C)N(C)C (centres unmarked) [Nex-70, Octyl 2-(dimethylamino)propanoate hydrochloride] |  | 134 | 0.88 | 780 | 780 | 780 | 3130 | 3130 | 3130 | 3130 | 3130 | 3130 | 780 | 780 | 780 | 12500 | 12500 | 12.5 | 5.53 | 5.51 | Viable counts, Candida albicans time kill study ([8]; 5 min): 5.49 Log10 CFU/mL; Viable counts, Candida albicans time kill study ([8]; time 0): 5.55 Log10 CFU/mL; Viable counts, Escherichia coli time kill study ([9]; 0.5 min): <4.0 Log10 CFU/mL; Viable counts, Escherichia coli time kill study ([9]; 1 min): <3.70 Log10 CFU/mL; Viable counts, Escherichia coli time kill study ([9]; 5 min): <3.52 Log10 CFU/mL; Viable counts, Escherichia coli time kill study ([9]; time 0): 5.0 Log10 CFU/mL; Viable counts, Pseudomonas aeruginosa time kill study ([10]; 0.5 min): <4.0 Log10 CFU/mL; Viable counts, Pseudomonas aeruginosa time kill study ([10]; 1 min): <3.70 Log10 CFU/mL; Viable counts, Pseudomonas aeruginosa time kill study ([10]; 5 min): <3.52 Log10 CFU/mL; Viable counts, Pseudomonas aeruginosa time kill study ([10]; time 0): 5.62 Log10 CFU/mL; Viable counts, Staphylococcus aureus time kill study ([11]; 0.5 min): 6.42 Log10 CFU/mL; Viable counts, Staphylococcus aureus time kill study ([11]; 1 min): 6.37 Log10 CFU/mL; Viable counts, Staphylococcus aureus time kill study ([11]; 5 min): 6.22 Log10 CFU/mL; Viable counts, Staphylococcus aureus time kill study ([11]; time 0): 6.37 Log10 CFU/mL

— US20140357713A1, “ANTIMICROBIAL COMPOUNDS AND METHODS OF USE” (NexMed Holdings, Inc., priority 2012, published 2014)
